{"source": "patent US5077405A", "about": "“3-(1-Substituted-4-piperazinyl)-1H-indazoles” (Hoechst-Roussel Pharmaceuticals Incorporated, priority 1990, dated 1991)", "note": "Structures can show the parent of a compound that is named as a salt.", "data": [{"tested_on": "mice", "test": "climbing mice assay (apomorphine-induced climbing; antipsychotic activity)", "type": "in vivo, CK-1 male mice", "details": "Mus musculus, ip, read-out: Antipsychotic Activity (Climbing Mice Assay) ED50", "experimental": "(§1) Antipsychotic activity is determined in the climbing mice assay by methods similar to those described by P. Protais, et al., Psychopharmacol, 50, 1 (1976) and B. Costall, Eur. J. Pharmacol., 50, 39 (1978).\n(§2) The subject CK-1 male mice (23-27 grams) are group-housed under standard laboratory conditions. The mice are individually placed in wire mesh stick cages (4\"×4\"×10\") and are allowed one hour for adaptation and exploration of the new environment. Then apomorphine is injected subcutaneously at 1.5 mg/kg, a dose causing climbing in all subjects for 30 minutes. Compounds to be tested for antipsychotic activity are injected intraperitoneally 30 minutes prior to the apomorphine challenge at a screening dose of 10 mg/kg.\n(§3) For evaluation of climbing, 3 readings are taken at 10, 20 and 30 minutes after apomorphine administration according to the following scale:\n(§4) 4 paws on bottom (no climbing)\n(§5) 2 paws on the wall (rearing)\n(§6) 4 paws on the wall (full climb)\n(§7) Mice consistently climbing before the injection of apomorphine are discarded.\n(§8) With full-developed apomorphine climbing, the animals are hanging onto the cage walls, rather motionless over longer periods of time. By contrast, climbs due to mere motor stimulation usually last only a few seconds.\n(§9) The climbing scores are individually totaled (maximum score: 6 per mouse over 3 readings) and the total score of the control group (vehicle intraperitoneally-apomorphine subcutaneously) is set to 100%. ED50 values with 95% confidence limits, calculated by a linear regression analysis of some of the compounds of this invention are presented in Table II.", "units": {"ED50": "mg/kg"}, "values": [{"smiles": "Cl.Fc1ccc2c(N3CCNCC3)n[nH]c2c1", "note": "[6-Fluoro-3-(1-piperazinyl)-1H-indazole Hydrochloride]", "ED50": 6.4}, {"smiles": "CN1CCN(c2n[nH]c3cc(F)ccc23)CC1", "note": "[6-Fluoro-3-(4-methyl-1-piperazinyl)-1H-indazole]", "ED50": 4.7}, {"smiles": "O=C(CCCN1CCC(O)(c2ccc(Cl)cc2)CC1)c1ccc(F)cc1", "note": "[haloperidol, reference compound]", "ED50": 0.11}]}, {"tested_on": "mice", "test": "climbing mice assay (apomorphine-induced climbing; antipsychotic activity)", "type": "in vivo, CK-1 male mice", "details": "Mus musculus; male mice, ip 30 min before apomorphine 1.5 mg/kg sc; linear regression; read-out: Antipsychotic Activity (Climbing Mice Assay) ED50", "experimental": "as §1, §2, §3, §4, §5, §6, §7, §8, §9", "units": {"ED50": "mg/kg"}, "values": [{"smiles": "Fc1ccc(C(CCCN2CCN(c3n[nH]c4ccccc34)CC2)c2ccc(F)cc2)cc1", "note": "[3-[4-[4,4-Bis(4-fluorophenyl)butyl-1-piperazinyl]-1H-indazole hydrochloride]", "ED50": 0.87}, {"smiles": "Cc1[nH]c2ccccc2c1CCCN1CCN(c2n[nH]c3ccccc23)CC1", "note": "[3-{4-[3-(2-Methylindol-3-yl)propyl]-1-piperazinyl}-1H-indazole hemifumarate]", "ED50": 0.4}, {"smiles": "O=c1[nH]c2ccccc2n1CCCN1CCN(c2n[nH]c3cc(F)ccc23)CC1", "note": "[6-Fluoro-3-{4-[3-(1,3-dihydro-2-oxo-2H-benzimidazol-1-yl)propyl]-1-piperazinyl}-1H-indazole Hemifumarate]", "ED50": 0.43}, {"smiles": "Cn1nc(N2CCN(CCCCN3C(=O)CC4(CCCC4)CC3=O)CC2)c2ccccc21", "note": "[8-[4-[1-(1-Methyl-1H-indazol-3-yl)-4-piperazinyl]butyl-8-azaspiro[4,5]decane-7,9-dione fumarate]", "ED50": 7.3}, {"smiles": "O=C1CC2(CCCC2)CC(=O)N1CCCCN1CCN(c2n[nH]c3ccccc23)CC1", "note": "[8-[4-[1-(1H-indazol-3-yl)-4-piperazinyl]butyl-8-azaspiro[4.5]decane-7,9-dione hemifumarate]", "ED50": 0.6}]}, {"tested_on": "mice", "test": "2-phenyl-1,4-benzoquinone-induced writhing test in mice (analgesia)", "type": "in vivo", "details": "Mus musculus, sc, read-out: Dose (subcutaneous) [ED50], inhibition of writhing", "units": {"ED50": "mg/kg"}, "values": [{"smiles": "CC(=O)n1nc(N2CCN(C)CC2)c2ccccc21", "note": "[1-Acetyl-3-(4-methyl-1-piperazinyl)-1H-indazole]", "ED50": 2.1}, {"smiles": "CCn1nc(N2CCN(C)CC2)c2ccccc21", "note": "[1-ethyl-3-(4-methyl-1-piperazinyl)-1H-indazole]", "ED50": 0.5}, {"smiles": "c1ccc2c(N3CCNCC3)n[nH]c2c1", "note": "[3-(1-piperazinyl)-1H-indazole, 3-(1-Piperazinyl)-1H-indazole]", "ED50": 0.9}, {"smiles": "CN1CCN(c2n[nH]c3ccccc23)CC1", "note": "[3-(4-methyl-1-piperazinyl)-1H-indazole, 3-(4-Methyl-1-piperazinyl)-1H-indazole]", "ED50": 0.04}, {"smiles": "CN1CCN(c2n[nH]c3ccc(Cl)cc23)CC1", "note": "[5-Chloro-3-(4-methyl-1-piperazinyl)-1H-indazole]", "ED50": 6.8}, {"smiles": "CCC(=O)O[C@](Cc1ccccc1)(c1ccccc1)[C@H](C)CN(C)C", "note": "[propoxyphene, reference compound]", "ED50": 3.9}]}, {"tested_on": "mice", "test": "2-phenyl-1,4-benzoquinone-induced writhing test in mice (analgesia)", "type": "in vivo", "details": "Mus musculus, sc; mice, subcutaneous, 2-phenyl-1,4-benzoquinone-induced writhing; read-out: Dose (subcutaneous) [ED50], inhibition of writhing", "units": {"ED50": "mg/kg"}, "values": [{"smiles": "CN1CCN(c2nn(C(=O)c3ccccc3)c3cc(F)ccc23)CC1", "note": "[1-Benzoyl-6-fluoro-3-(4-methyl-1-piperazinyl)-1H-indazole]", "ED50": 4.3}, {"smiles": "CN1CCN(c2nn(CC3CC3)c3ccccc23)CC1", "note": "[1-Cyclopropylmethyl-3-(4-methyl-1-piperazinyl)-1H-indazole]", "ED50": 1.5}, {"smiles": "Cl.Cl.OCCN1CCN(c2n[nH]c3ccccc23)CC1", "note": "[3-[4-(2-Hydroxyethyl)-1-piperazinyl]-1H-indazole dihydrochloride]", "ED50": 2}, {"smiles": "Fc1ccc(C(CCCN2CCN(c3n[nH]c4ccccc34)CC2)c2ccc(F)cc2)cc1", "note": "[3-[4-[4,4-Bis(4-fluorophenyl)butyl-1-piperazinyl]-1H-indazole hydrochloride]", "ED50": 3.6}, {"smiles": "O=C1CC2(CCCC2)CC(=O)N1CCCCN1CCN(c2n[nH]c3ccccc23)CC1", "note": "[8-[4-[1-(1H-indazol-3-yl)-4-piperazinyl]butyl-8-azaspiro[4.5]decane-7,9-dione hemifumarate]", "ED50": 0.07}]}]}
